Tests used:
[1] = test system: F10T-K+ (hairpin duplex DNA); experiment: FRET melting assay, hairpin duplex DNA; type: binding; settings: 200 nM DNA, PIPER and 3 not reliable (spectral overlap)
Experimental: (§1) With the library in hand, we began our investigation into G4 stabilization by conducting a Förster resonance energy transfer (FRET) melting assay to assess DNA stabilization using the procedure outlined by De Cian et. al. ^[13] […] The sequences examined (at 200 nM) were the human telomeric G4 in potassium buffer (F21T‐K^+, mixed parallel/hybrid G4) ^[14] and sodium buffer (F21T‐Na^+, antiparallel G4), ^[15] the c‐Myc promoter G‐quadruplex (FmycT‐K^+, parallel G4), ^[16] a polymorphic G4 found in T. brucei (FEBR1T‐K^+, a mixed G4 topology), ^[6b] and a hairpin duplex DNA sequence (F10T‐K^+). Together, these sequences represent targets for therapeutic intervention to treat parasitic infections, ^[6b] or cancer. ^[1b] The topology of each sequence was confirmed independently via circular dichroism (CD, Figure S1). […]
(§2) FRET melting assays were performed to assess ligand affinity for duplex and G-quadruplex
(§3) DNA. Briefly, oligonucleotides of interest were obtained labelled at the 5’ and 3’ ends with FAM (a fluorescence donor) and TAMRA (a fluorescence quencher), respectively. In the folded state, proximity of the donor and quencher result in no observed fluorescence from FAM, since energy is transferred non-radiatively to TAMRA by FRET. As the temperature is raised and the secondary structure denatures, the fluorophores move further apart and the fluorescence signal increases. From the resulting curve, the characteristic melting temperature (Tmax, also referred to as Tm) is defined as the temperature which corresponds to the maxima of the first derivative of the normalised fluorescence signal. The change in melting temperature (ΔTm) induced by the presence of a small molecule ligand provides an indication of the ligand’s ability to stabilise the DNA structure. FRET experiments were performed according to the […]
(§4) procedure reported by De Cian and co-workers[S3] on a Stratagene MX3005P. The method consisted of holding at 25 °C for 5 min, before heating at 1 °C/min to 96 °C in 1 °C increments, […]

[2] = test system: F21T-Na+ (human telomeric G-quadruplex, antiparallel); experiment: FRET melting assay, human telomeric G4 in sodium buffer; type: binding; settings: 200 nM DNA, PIPER and 3 not reliable (spectral overlap)
Experimental: as §1, §2, §3, §4

[3] = test system: L. major; experiment: Leishmaniacidal activity, MTT assay; type: cell-based; settings: Leishmania major; 72 h incubation, MTT absorbance; read-out: absolute EC50 L. major
Experimental: Doxorubicin, suramin and miltefosine were used as control compounds.[ ^6b , ^9 ] After incubation with varied concentrations of the compounds for 72 h, cell viability was measured using either an alamarBlue™ assay (for MRC5, HeLa and T. brucei) or MTT assay (for L. major). Absolute EC50 values and selectivity indexes were then calculated from dose‐response curves (Table 2 and S14).
Invitrogen). L. major promastigotes (MHOM/IL/80/Friedlin) were cultured at 28 °C, 5 % CO2 in modified RPMI-1640 medium (Thermo Fisher Scientific, Waltham, MA, USA) with 10% hiFBS. Parasites were split every other day and maintained in their experimental growth phase (below 2 million parasites per mL). […]
The results are expressed as the concentration of compound that reduces cell growth by 50 % versus untreated control cells (EC50) using GraphPad Prism 7 (GraphPad Software) to fit the data to a sigmoidal curve. Data are presented as the average of three independent measurements all conducted in triplicate conditions. […]
The leishmaniacidal activity of the compounds on promastigotes L. major (MHOM/IL/80/Friedlin) was carried out as previously described.[S14] Briefly, 4 × 10^6 / mL promastigotes were incubated for 72 h at 28 °C in 96-well plates (50 µL/well) in the presence of increasing concentration of compounds. Cell proliferation was determined using an MTT-based assay (Sigma-Aldrich). Thus, after the 72 h incubation, 10 µL of MTT (5 mg/ml) were added to each well and parasites were reincubated for 4 hrs at 28 °C. Then, 50 µL of 20 % SDS were added to each well. The plate was then incubated at 37°C for 4-16 hrs and analysed using an Infinite F200 plate reader (TECAN Austria, GmbH). The absorbance was measured […]
at a wavelength of 540 nm and the EC50 was calculated as described above. Data are presented as the average of three independent measurements, all conducted in triplicate conditions. […]

[4] = test system: Febr1T-K+ (T. brucei G-quadruplex); experiment: FRET melting assay, T. brucei G4; type: binding; settings: 200 nM DNA, PIPER and 3 not reliable (spectral overlap)
Experimental: as §1, §2, §3, §4

[5] = test system: FmycT-K+ (c-Myc promoter G-quadruplex, parallel); experiment: FRET melting assay, c-Myc promoter G4; type: binding; settings: 200 nM DNA, PIPER and 3 not reliable (spectral overlap)
Experimental: as §1, §2, §3, §4

[6] = test system: Febr1T (DNA, G4) GGGCAGGGGGTGATGGGGAGGAGCCAGGG; experiment: FRET melting; settings: 10 mM K+, 90 mM Li+; 10 mM Li cacodylate; 5 µM ligand, 200 nM DNA
[7] = 5 μM ligand, 10 mM KCl, 90 mM LiCl, 10 mM Li cacodylate
[8] = 5 μM ligand, 100 mM NaCl, 10 mM Li cacodylate
[9] = 5 μM ligand, 1 mM KCl, 99 mM LiCl, 10 mM Li cacodylate

Compound	ΔTm F10T-K+ ([1]; 1 µM ligand) [°C]	ΔTm F10T-K+ [1, 7] [°C]	ΔTm F10T-K+ ([1]; 10 µM ligand) [°C]	ΔTm F21T-Na+ ([2]; 1 µM ligand) [°C]	ΔTm F21T-Na+ [2, 8] [°C]	ΔTm F21T-Na+ ([2]; 10 µM ligand) [°C]	EC50 [3] [µM]	ΔTm Febr1T-K+ ([4]; 1 µM ligand) [°C]	ΔTm Febr1T-K+ [4, 7] [°C]	ΔTm Febr1T-K+ ([4]; 10 µM ligand) [°C]	ΔTm FmycT-K+ ([5]; 1 µM ligand) [°C]	ΔTm FmycT-K+ [5, 9] [°C]	ΔTm FmycT-K+ ([5]; 10 µM ligand) [°C]	ΔTm [6] [°C]
CN1CCN(CCCN2C(=O)c3ccc4c5ccc6c7c(ccc(c8ccc(c3c48)C2=O)c75)C(=O)N(CCCN2CCN(C)CC2)C6=O)CC1 [Compound 3]	1 ± 1	6±2	13 ± 2	18 ± 2	35±4	> 40	> 100	2 ± 1	33±1	39 ± 1	24 ± 1	37±2	> 40	–
CN1CCN(CCCN2C(=O)c3ccc4c5c(ccc(c35)C2=O)C(=O)N(CCCN2CCN(C)CC2)C4=O)CC1 [Compound 1]	0 ± 1	1±1	3 ± 1	–	–	–	0.47 ± 0.07	7 ± 3	9±1	11 ± 3	–	–	–	9±1
CN1CCN(CCCN2C(=O)c3ccc(Oc4ccc(C(C)(C)c5ccc(Oc6ccc7c(c6)C(=O)N(CCCN6CCN(C)CC6)C7=O)cc5)cc4)cc3C2=O)CC1 [Compound 9]	–	0±1	–	–	−4±1	6 ± 4	> 100	–	−4±1	-3 ± 1	–	−1±2	10 ± 3	−4±1
CN1CCN(CCCNC(=O)c2ccc(Oc3ccc(C(C)(C)c4ccc(Oc5ccc(C(=O)NCCCN6CCN(C)CC6)c(C(=O)NCCCN6CCN(C)CC6)c5)cc4)cc3)cc2C(=O)NCCCN2CCN(C)CC2)CC1 [Compound 11]	–	0±1	1 ± 1	-4 ± 1	1±1	9 ± 2	18 ± 1	1 ± 1	6±1	13 ± 1	-3 ± 1	5±1	10 ± 2	6±1

Source: publication PMC8251916 (Chemistry (Weinheim an Der Bergstrasse, Germany), 2021)
